In ChEMBL document CHEMBL1123196, “p-Dimethoxy-substituted trans-octahydrobenzo[f]- and -[g]quinolines: synthesis and assessment of dopaminergic agonist effects” (1986):
Activity calls are given as the source filed them. No cut-off for these calls is given here.

Tests used:
[1] = biological target: T1, Dopamine receptor (Rattus norvegicus) (UniProt P25115+P19020+P30729+P18901+P61169); experiment: Antagonistic activity at a dose of 12.3 umol/kg was evaluated in rats with unilateral lesion of the nigrostriatal pathway (post junctional dopamine receptors); Inactive; type: functional
[2] = biological target: D(2) dopamine receptor (Homo sapiens) (UniProt P14416); experiment: Antagonistic activity at a dose of 3.08 umol/kg was evaluated against Dopamine receptor D2 in the […] cardioaccelerator nerve preparation; Inactive; type: functional
[3] = biological target: D(2) dopamine receptor (Homo sapiens) (UniProt P14416); experiment: Agonistic activity at a dose of 12.3 umol/kg was evaluated in rats with unilateral lesion of the nigrostriatal pathway (post junctional dopamine receptors); Inactive; type: functional; settings: Rattus norvegicus, target entry is the homologue from another species
[4] = biological target: D(2) dopamine receptor (Homo sapiens) (UniProt P14416); experiment: Agonistic activity at a dose of 3.08 umol/kg was evaluated against Dopamine receptor D2 in the […] cardioaccelerator nerve preparation; Inactive; type: functional; settings: Felis catus
[5] = system: Felis catus; experiment: Compound at a dose of 50 ug/kg was evaluated for the reversal of the inhibition of nerve stimulation using the cat cardioaccelerator nerve preparation; Reversed inhibition; type: functional, organism-based
[6] = system: Felis catus; experiment: Compound at a dose of 100 ug/kg was evaluated for the reversal of the inhibition of nerve stimulation using the cat cardioaccelerator nerve preparation; Reversed inhibition; type: functional, organism-based
[7] = biological target: D(2) dopamine receptor (Homo sapiens) (UniProt P14416); experiment: Potency was evaluated for the activity against Dopamine receptor D2 of cat cardioaccelerator nerve preparation; Active; settings: Felis catus; target entry is the homologue from another species
[8] = organism: Felis catus; experiment: Inhibitory dose was evaluated on the cat cardioaccelerator nerve preparation; type: functional; settings: read-out: ID50 (the source's name)
[9] = organism: Felis catus; experiment: Inhibitory dose was evaluated for the inhibition of the chronotropic response to nerve stimulation using the cat cardioaccelerator nerve preparation; type: functional; settings: read-out: ID50 (the source's name)
[10] = organism: Felis catus; experiment: Inhibitory dose was evaluated against cat cardioaccelerator nerve preparation; type: functional; settings: read-out: ID50 (the source's name)
[11] = biological target: D(2) dopamine receptor (Homo sapiens) (UniProt P14416); experiment: Agonistic activity at a dose of 13.3 umol/kg was evaluated in rats with unilateral lesion of the nigrostriatal pathway (post junctional dopamine receptors); Inactive; type: functional; settings: Rattus norvegicus, target entry is the homologue from another species
[12] = biological target: T1, Dopamine receptor (Rattus norvegicus); experiment: Antagonistic activity at a dose of 13.3 umol/kg was evaluated in rats with unilateral lesion of the nigrostriatal pathway (post junctional dopamine receptors); Inactive; type: functional
[13] = biological target: D(2) dopamine receptor (Homo sapiens) (UniProt P14416); experiment: Agonistic activity at a dose of 3.4 umol/kg was evaluated against Dopamine receptor D2 in the […] cardioaccelerator nerve preparation; Inactive; type: functional; settings: Felis catus
[14] = biological target: D(2) dopamine receptor (Homo sapiens) (UniProt P14416); experiment: Antagonistic activity at a dose of 3.4 umol/kg was evaluated against Dopamine receptor D2 in the […] cardioaccelerator nerve preparation; Inactive; type: functional; settings: Felis catus

Sequence of D(2) dopamine receptor (Homo sapiens) (P14416 whole entry): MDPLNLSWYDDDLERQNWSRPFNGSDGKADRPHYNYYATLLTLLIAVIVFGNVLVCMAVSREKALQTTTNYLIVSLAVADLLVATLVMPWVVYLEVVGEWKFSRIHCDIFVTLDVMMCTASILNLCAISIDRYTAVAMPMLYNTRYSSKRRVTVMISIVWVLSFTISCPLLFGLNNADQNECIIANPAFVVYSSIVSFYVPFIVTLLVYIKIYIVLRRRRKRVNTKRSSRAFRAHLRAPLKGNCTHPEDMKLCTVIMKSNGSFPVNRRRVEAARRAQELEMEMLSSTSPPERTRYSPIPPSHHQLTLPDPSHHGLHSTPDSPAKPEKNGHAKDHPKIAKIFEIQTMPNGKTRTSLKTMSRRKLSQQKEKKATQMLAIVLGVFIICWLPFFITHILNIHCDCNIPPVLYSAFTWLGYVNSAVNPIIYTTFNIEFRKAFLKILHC

CCCN1CCC[C@@H]2c3c(OC)ccc(OC)c3CC[C@@H]21
Activity [1]: inactive | Activity [2]: inactive | Activity [3]: inactive | Activity [4]: inactive

O=C(CCCN1CCC(O)(c2ccc(Cl)cc2)CC1)c1ccc(F)cc1
Activity [5]: Active | Activity [6]: Active

CCCN(CCC)C1Cc2cccc(O)c2C1 (stereo not given)
Activity [7]: Active

CN1CCc2cccc3c2[C@H]1Cc1ccc(O)c(O)c1-3 [APOMORPHINE]
ED50 [8]: 0.022 µmol/kg

CCCN(CCC)C1CCc2c(O)cccc2C1 (stereo not given)
Activity [7]: Active

CCCN1CCC[C@H]2c3c(OC)ccc(OC)c3CC[C@@H]21
ED50 [9]: 1.17 µmol/kg

CCCN1CCC[C@@H]2Cc3c(OC)ccc(OC)c3C[C@H]21
ED50 [10]: 0.032 µmol/kg

CCCN(CCC)CCc1cc(OC)ccc1OC
Activity [11]: inactive | Activity [12]: inactive | Activity [13]: inactive | Activity [14]: inactive
